Experimental findings from patent publication US20200222400A1, “METHODS FOR THE TREATMENT OF NEUROLOGICAL DISORDERS” (Yumanity Therapeutics, Inc., priority 2019, published 2020) are described below.

The subject of assay [1] is apolipoprotein E4 (ApoE4) Alzheimer's disease yeast model. Briefly: ApoE4 yeast model rescue (growth, OD600). The class given is cell-based, Saccharomyces cerevisiae. Conditions: 12-point dose. The source says:
Strain ApoE-mga2Δ was generated by amplifying 1000 base pairs (bp) upstream and downstream of the MGA2 ORF in a strain in which MGA2 was deleted using a G418 (GENETICIN®) resistance cassette (kanMX) (Piotrowski et al. Proc. Natl. Acad. Sci. USA 112(12):E1490-1497, 2015) and transforming the resulting deletion cassette into the ApoE4 strain in the BY4741 (ATCC 201388) genetic background. The ApoE strain is described, for example, in International Patent Application Publication No. WO 2016/040794, which is incorporated herein by reference in its entirety.
All compound profiling experiments were performed using the same basic protocol. Different genetic backgrounds (e.g., gene deletions) or conditions (e.g., addition of oleic and palmitoleic acid) were replaced as indicated below.
Yeast were cultured using standard techniques in complete synthetic media (CSM) and yeast nitrogen base supplemented with 2% (w/v) carbon source (glucose, raffinose, or galactose) to regulate the expression of the toxic disease protein. An initial starter culture was inoculated in 3 mL CSM-Glucose media and incubated overnight in a 30° C. shaker incubator (225 rpm). […]
(§1) After yeast delivery, assay plates were incubated under humidified conditions at 30° C. for 24 to 40 h. […] The growth of yeast was monitored by reading the OD600 of each well using a microplate reader (Perkin Elmer EnVision™). […]

The next assay deals with Ole1/SCD. The experiment in a line: Yeast growth inhibition in control / wild-type condition (OD600). It is filed as cell-based, Saccharomyces cerevisiae. Conditions: ApoE4 strain, non-inducing conditions, raffinose.
From the text: Strain GMYF was constructed from the ABC16/Green monster strain described in Suzuki et al. Nat. Methods 8(2):159-164, 2011. In this strain, YAP1 was deleted using a HIS3-MX6 cassette, and FLR1 was deleted using a NAT-MX6 cassette using standard methods. The knockout cassettes were PCR-amplified from plasmid templates (see, e.g., Bahler et al. Yeast 14(10):943-951, 1998; Longtine et al. Yeast 14(10):953-961, 1998) and transformed into yeast using lithium acetate-based transformation (Gietz et al. Methods Mol. Biol. 1205:1-12, 2014). The yap1::his3 deletion strain was selected on media lacking histidine and flr1::NAT on plates containing 100 μg/mL nourseothricin. All strains were confirmed by diagnostic PCR. Strain W303 pdr1Δ pdr3Δ was constructed from W303-1A (American Type Culture Collection (ATCC) 208352) by deleting PDR1 and PDR3 with kan-MX6 cassettes separately in MATa and MATα W303a isolates, mating, sporulating, and identifying the double deletion haploids by tetrad dissection and identification of non-parental ditype tetrads. Strain W-erg3 was derived from W303 pdr1Δ pdr3 by deleting SNQ2 with NAT-MX6, YAP1 with HIS3-MX6, and ERG3 with BleMX. […]
as §1

Regarding `COc1ccc(-c2noc(C3CCN(C(=O)CNC(=O)c4ccccc4)CC3)n2)cc1OC` [Compound 1, N-(2-(4-(3-(3,4-dimethoxyphenyl)-1,2,4-oxadiazol-5-yl)piperidin-1-yl)-2-oxoethyl)benzamide], the “rescue dose-response in ApoE4 model (OD600)” value in assay [1] is given as “bell-shaped dose-response curve”. Further, the “growth in control (non-inducing) condition” value in the assay with Ole1/SCD is “growth decreased at this same concentration”.
